Laboratory results published in EP4621409A1, “NOVEL ANTIVIRAL PEPTIDE” (Daehannupharm Co., Ltd., priority 2022, dated 2024).
Like-named read-outs stand apart in the source and are kept apart here. No end group written: not given here.

Experiments:
[1] = test system: dengue virus; details: for IC50: dengue virus incubated with peptide 37°C 1 hour, Vero cells, 2 days, triplicate
Method: The inoculated cells were cultured overnight.
The SP-049 peptide was prepared such that the maximum concentration was 125 nM and the minimum concentration was 0.98 nM (concentrations: 125 nM; 62.5 nM; 31.25 nM; 15.62 nM; 7.81 nM; 3.91 nM; 1.95 nM; and 0.98 nM).
The present inventors calculated the inhibition rate (% inhibition) of each well based on the formula of the standard curve by converting the average Ct value of wells infected with dengue virus without peptide treatment in the same plate into an infection rate of 100%, and using this to create a standard curve. Each value was obtained through three repeated experiments (in triplicate), and IC50 values were derived using GraphPad Prism 5 software.

[2] = test system: SARS-CoV-2 virus
[3] = test system: HCV; details: Table 1 in Cheng, Guofeng, et al.; cited from earlier work

Sequence	IC50 [1] [µM]	IC50 [2] [µM]	% Inhibition ([1]; Conc. 7.81 nM) [%]	% Inhibition ([1]; Conc. 31.25 nM) [%]	% Inhibition ([1]; Conc. 62.50 nM) [%]	% Inhibition ([1]; Conc. 125.00 nM) [%]	% Inhibition ([1]; Conc. 15.63 nM) [%]	other results
WDCVQDIWEYIFRTAMKI [SP-185, WDCVQDIWEYIFRTAMKI]	0.519	–	–	–	–	–	–	% Inhibition ([1]; Conc. 39.06 nM): -7.43%; % Inhibition ([1]; Conc. 78.13 nM): 11.76%; % Inhibition ([1]; Conc. 156.25 nM): 36.60%; % Inhibition ([1]; Conc. 312.50 nM): 33.04%; % Inhibition ([1]; Conc. 625.00 nM): 51.77%; % Inhibition ([1]; Conc. 1250.00 nM): 89.53%; % Inhibition ([1]; Conc. 2500.00 nM): 100.00%; % Inhibition ([1]; Conc. 5000.00 nM): 100.00%
ILDFFVGFIDWLVRYLNK [SP-046, ILDFFVGFIDWLVRYLNK]	0.0177	7.9	15.33	100.00	100.00	100.00	–	% Inhibition ([1]; Conc. 0.98 nM): 3.30%; % Inhibition ([1]; Conc. 1.95 nM): 3.30%; % Inhibition ([1]; Conc. 3.91 nM): 5.60%; % Inhibition ([1]; Conc. 15.62 nM): 36.10%
DFWSKLVYFFAEIIRFLS [SP-143, DFWSKLVYFFAEIIRFLS]	0.0161	19.5	49.26	79.28	94.07	99.42	53.07	% Inhibition ([1]; Conc. 0.98 nM): 59.95%; % Inhibition ([1]; Conc. 1.95 nM): -28.80%; % Inhibition ([1]; Conc. 3.91 nM): 42.98%
DWLRIIWDWVCSVVSDFK [SEQ ID NO: 301]	–	–	–	–	–	–	–	antiviral activity compared among C5A analogs derived from HCV 1a, 1b, 2a, 3a, 4a, 5a and 6a [3]: higher antiviral activity
WSEILREFLNLISLIWSR [SP-110, WSEILREFLNLISLIWSR]	–	19.5	–	–	–	–	–	–
SWKEIVNLLYELLASLIR [SP-101, SWKEIVNLLYELLASLIR]	0.1	11.6	-14.11	0.96	23.20	65.09	20.94	% Inhibition ([1]; Conc. 250.00 nM): 97.07%; % Inhibition ([1]; Conc. 500.00 nM): 100.00%; % Inhibition ([1]; Conc. 1000.00 nM): 100.00%
DKIVLFILSILEKIYNLL [SP-171, DKIVLFILSILEKIYNLL]	–	18.7	–	–	–	–	–	–
FSFWVWLDNIIDLVKKYI [SP-114, FSFWVWLDNIIDLVKKYI]	–	19.5	–	–	–	–	–	–
SFLDIVWSIIDIFKEFCK [SP-003, SFLDIVWSIIDIFKEFCK]	0.022	10.3	-6.03	71.23	63.98	99.91	38.56	% Inhibition ([1]; Conc. 250.00 nM): 100.00%; % Inhibition ([1]; Conc. 500.00 nM): 100.00%; % Inhibition ([1]; Conc. 1000.00 nM): 100.00%
ILVRWLSHFFEYLDRFYT [SP-221, ILVRWLSHFFEYLDRFYT]	–	19.5	–	–	–	–	–	–
FTNFHRQLFCWIDKWIDL [SP-191, FTNFHRQLFCWIDKWIDL]	0.776	–	–	–	–	–	–	% Inhibition ([1]; Conc. 39.06 nM): -20.14%; % Inhibition ([1]; Conc. 78.13 nM): -14.44%; % Inhibition ([1]; Conc. 156.25 nM): 5.32%; % Inhibition ([1]; Conc. 312.50 nM): 46.78%; % Inhibition ([1]; Conc. 625.00 nM): 29.53%; % Inhibition ([1]; Conc. 1250.00 nM): 64.10%; % Inhibition ([1]; Conc. 2500.00 nM): 98.50%; % Inhibition ([1]; Conc. 5000.00 nM): 99.99%
DVTRLLELILDVLAYIIS [SP-151, DVTRLLELILDVLAYIIS]	–	5	–	–	–	–	–	–
ESLKNFWESLWKFFTHFF [SP-001, ESLKNFWESLWKFFTHFF]	0.0226	–	-0.47	57.96	78.78	82.51	45.60	% Inhibition ([1]; Conc. 250.00 nM): 100.00%; % Inhibition ([1]; Conc. 500.00 nM): 100.00%; % Inhibition ([1]; Conc. 1000.00 nM): 100.00%
YNLFDLLIYIWNKIFDDY [SP-049, YNLFDLLIYIWNKIFDDY]	0.00385	1.8	93.03	100.00	100.00	–	100.00	% Inhibition ([1]; Conc. 0.49 nM): 24.20%; % Inhibition ([1]; Conc. 0.98 nM): 20.16%; % Inhibition ([1]; Conc. 1.95 nM): 39.14%; % Inhibition ([1]; Conc. 3.91 nM): 45.30%
FTFWTWLEAILDLIKKHI [SP-116, FTFWTWLEAILDLIKKHI]	–	4.1	–	–	–	–	–	–
QSFLDIVWSIIDIFKEFC [SP-004, QSFLDIVWSIIDIFKEFC]	0.207	8.9	-1.96	9.23	22.45	34.78	6.56	% Inhibition ([1]; Conc. 250.00 nM): 61.21%; % Inhibition ([1]; Conc. 500.00 nM): 99.95%; % Inhibition ([1]; Conc. 1000.00 nM): 100.00%
